Test results from article PMC9714824, “Hexapeptides from mammalian inhibitory hormone hunt activate and inactivate nematode reproduction” (PLOS ONE, 2022).

Key:
rat bone marrow cells = test: Bone marrow cell assay, time-lapse cell counts over 24h; assay type: cell-based; conditions: EPL001, EPL030 at 6μM, EPL120 at 5μM final concentration, in words (Fig 6)
Description: The method has been described previously at length. Bone marrow cells, consisting of various cell types including mesenchymal stem cells and fibroblasts, were cultured from adult male rats (Rattus norvegicus, SD strain). These cells were passaged from a growing primary stock in a T75 tissue culture flask (Sarstedt) into a 48 well tissue culture plate (IWAKI), with a cell density of 1 x 10^5/ml. The cell culture media, henceforth referred to as ‘supplemented a-MEMS,’ comprised α-MEMS media supplemented with 10% FCS and 1% penicillin/streptomycin (all Life Technologies, Carlsbad, CA, US). On the day of peptide addition to the cells, the supplemented α-MEMS was gently removed and fresh supplemented α-MEMS added, with 10% test material by volume to achieve micromolar concentrations, untreated controls receiving just fresh supplemented α-MEMS. (For dose levels see legends in respective result figures) All samples were filter sterilised using a Millex-GV […] syringe filter unit (Merck, Kenilworth, NJ, USA). The cells were imaged for 24 h using an incubated Zeiss Axiovert 135M microscope with a Prior Proscan II motorised stage, at 37 °C with a 5% CO2 in air feed. Each well of the 48-well tissue culture plate was then imaged for 24h every 5 min using Metamorph software (MDS Analytical Technologies, Wokingham, UK), with each well having four fields of view. The viability and cell numbers were reviewed by analysing the images captured over the 24h period and cell counts were taken at selected time points using the Metamorph software.
Fig 6 Bone marrow cells in culture exposed to long peptides. Cells were counted over 24h after exposure to the 14mer peptide EPL001 or its scrambled-sequence control EPL030 at 6μM final concentration or to the 20mer EPL120 at 5μM final concentration, compared to peptide-untreated controls.
Fig 7 Bone marrow cells in culture exposed to hexapeptides. Cells were counted over 24h after exposure to either EPL016 (= MKPLTG, the ‘Front 6’ of the 14mer EPL001) or EPL036 (= IEPVFT, the ‘Back 6’ of EPL030, the scrambled-sequence control of EPL001) at 1μM final concentration, compared to peptide-untreated controls.

[1] = test system: MCF 7 human breast cancer cells; conditions: in words; EPL120 over 72h, dose range 0.04 nM– 4 μM; cited from earlier work
mouse renal cell = conditions: in words; cited from earlier work
human dental pulp cells = conditions: 5μM (single starting dose) in the cell medium; over 7 days; cited from earlier work
From the text: EPL001 is a found sequence, as described in the Introduction. As a 14mer synthetic peptide it has been represented elsewhere as a minimized ball and stick model in silico [9]. […] An anti-EPL001 antibody administered alone potentiated compensatory renal grow ...

DU145 cells = test: MTS viable cell assay, DU145 (Epistem); assay type: cell-based, human; conditions: DU145, 72h
Description: (§1) Further assays on human prostate cancer cells were conducted at a contract research organisation (Epistem, Manchester, UK). LNCaP or DU145 cells seeded at 3,000 cells/well across a 96-well plate were cultured in RPMI (phenol red free), 10% FCS, 1% sodium pyruvate, Pen/strep and L-glutamine for 24h before exposure to peptides, at a single dose level in the case of LNCaPs or multiple dose levels in the case of DU145s. (For dose levels see Results.) Controls received vehicle (1% PBS). For the DU145s peptide administration was repeated after 24h. 72h after the first administration (DU145s) or only administration (LNCaP) total viable cell numbers were measured colorimetrically (MTS) using a CellTiter 96 AQueous One Solution Cell Proliferation Assay (Promega, Southampton, UK), following manufacturer’s instructions. Briefly, the media on the plates was replaced with the CellTiter reagent diluted 1:5 in DMEM. The plates were returned to the incubator for 3 hours before reading absorbance at 492 nm on a FLUORstar OPTIMA (BMG Labtech). CellTiter data are the absorbance minus background values (CellTiter plus DMEM), expressed as (OD mean +/− SEM). Statistical analysis was by ANOVA, Dunnett’s multiple comparisons test.

PNT2 cells = test: MTS colorimetric viable cell assay, PNT2; assay type: cell-based, human; conditions: 30 μM, 27h, 492 nm, triplicate
Description: (§2) Assays involving a range of peptides from 14mer down to 6mers assessed total viable PC3 or PNT2 cells using a 96-well plate MTS colorimetric assay (CellTiter 96 Aqueous One Solution Cell Proliferation Assay, Promega, Southampton, UK), with absorbance measured at 492 nm. Cells were seeded at 8,000 per well and grown for 27h. Peptides were administered at the outset to a final concentration of 30 μM (in 2 μl) to samples in triplicate. (A higher dosage was used than in the 14mer peptides study to shorten the timecourse of response.) Controls received buffer. Data are OD mean +/ − SEM, with statistical analysis by two tailed t-test. A time course study of the 14mers on PC3s, using the same technique, involved measurements at 24h and 48h.
(§3) Fig 5 Effects of a range of peptides on human prostate cancer cell growth in vitro. Assays involved a range of peptides from 14mers down to 6mers (Table 1), with viable cells assessed using a 96-well plate MTS colorimetric assay. Absorbance measured at 492 nm. Cells were seeded at 8,000 per well and grown for 27h. Peptides were administered at the outset to a final concentration of 30 μM (in 2 μl) to samples in triplicate. Controls received buffer. Data are OD mean +/- SEM, with statistical analysis by two tailed t-test. * p<0.05; **p<0.025.

LNCaP cells = test: MTS viable cell assay, LNCaP (Epistem); assay type: cell-based, human; conditions: over 72h, single dose level
Description: as §1

PC3 cells = test: MTS colorimetric viable cell assay, PC3; assay type: cell-based, human; conditions: PC3; 30 μM; 27h; MTS, 492 nm; triplicate
Description: as §2, §3

EPL120: EPL001 Edman sequence tentatively extended 6 further reads, to make a 20mer (MKPLTGKVKEFNNIKGFGVI)
Effect on bone marrow cells in culture (rat bone marrow cells): pro-apoptotic | Inhibition of IGF-1 stimulated growth in MCF-7 cell numbers [1]: dose-dependent inhibition

KGNEVMKLFPTINE [EPL010, Scrambled control (Haylor et al, 2009)]
Activity in a mouse renal cell assay in vitro (mouse renal cell): inactive

KVKEFNNI [EPL018, KVKEFNNI, EPL001 Back 8]
Reduction in cell numbers (human dental pulp cells): ~ 17%

MKPNFN [EPL600]
Test mean OD vs control mean (DU145 cells; 0.015 μM): +8.6% | Test mean OD vs control mean (DU145 cells; 0.15 μM): −0.1% | Test mean OD vs control mean (DU145 cells; 1.5 μM): −8.4% | Test mean OD vs control mean (DU145 cells; 15 μM): −7.1% | Test mean OD vs control mean (DU145 cells; 150 μM (highest concentration)): −16.9% | Difference in percentage terms between control and test OD means (PNT2 cells): −39.7% | Reduction in test mean OD versus the vehicle control mean (LNCaP cells): −35.1% | Difference in percentage terms between control and test OD means (PC3 cells): −27.3%

MKPVFN [EPL601]
Test mean OD vs control mean (DU145 cells; 0.015 μM): +6.9% | Test mean OD vs control mean (DU145 cells; 0.15 μM): −4.3% | Test mean OD vs control mean (DU145 cells; 1.5 μM): −10.4% | Test mean OD vs control mean (DU145 cells; 15 μM): −11.4% | Test mean OD vs control mean (DU145 cells; 150 μM (highest concentration)): −14.3% | Difference in percentage terms between control and test OD means (PNT2 cells): −33.2% | Reduction in test mean OD versus the vehicle control mean (LNCaP cells): −16.0% | Difference in percentage terms between control and test OD means (PC3 cells): −28.0%
